Marks after values point to notes of the source that are not given here.
Assays:
[1] = system: globally ischemic rat hearts; experiment: Global ischemia (25 min) and reperfusion (30 min) in isolated perfused rat hearts, 5HT2 antagonists
Experimental: To determine the effect of serotonin receptor agonists and antagonists, male Sprague-Dawley rats (450-550 g) were prepared as described below. The rats were anesthetized using 100 mg/kg sodium pentobarbital (i.p.). They were intubated and then treated with i.v. heparin (1000 U/kg). While being mechanically ventilated, their hearts were perfused in situ via retrograde cannulation of the aorta. The hearts were then excised and […] moved to a Langendorff apparatus where they were perfused with Krebs-henseleit bicarbonate buffer solution ((mM): 112 NaCI, 25 NaHC03, 5 KCI, 1.2 MgS04, 1 KH2P04, 1.25 CaC12, 2 pyruvate and 11.5 dextrose bubbled with 95% 02 - 5% C02) at a constant perfusion pressure (85 mm Hg). A water-filled latex balloon attached to a metal cannula was then inserted into the left ventricle and connected to a Statham pressure transducer for measurement of left ventricular pressure. The hearts were allowed to equilibrate for 15 min, at which time end diastolic pressure (EDP) was adjusted to 5 mm Hg and this balloon volume was maintained for the duration of the experiment. Pre-ischemia or pre-drug function, heart rate and coronary flow (extracorporeal electromagnetic flow probe) were then measured. Left ventricular developed pressure (LVDP) was calculated from the difference between left ventricular peak systolic pressure and EDP. Cardiac temperature was maintained throughout the experiment by submerging the hearts in 37 ° C buffer which was allowed to accumulate in a stoppered, heated chamber.
The model of global ischemia in isolated rat hearts was designed such that any protective effects observed are generally due to a direct cardioprotective effect and not to effects on cornonary or peripheral vascular tone. Also, because the hearts are perfused with an oxygenated buffer solution, platelets or the normal components of an inflammatory response are probably not important mediators of the ischemic/reperfusion injury observed in this model. […] Agents which exert their protective effects either through their effects on the peripheral or coronary vasculature such as nitrates or agents which act on blood or act on some component of the inflammatory response such as thromboxane A2 receptor antagonists are generally ineffective in this model.
The hearts were divided into the following groups: 1. Vehicle (0.1% DMSO) treatment beginning 10 minutes before the onset of ischemia (n = 8). 2. 0.3-10 µM ketanserin treatment beginning 10 minutes before the onset of ischemia (n = 4-5 per group). 3. 10 µM ketanserin given only during reperfusion (n = 4). 4. 0.1-10 µM cinanserin treatment beginning 10 minutes before global ischemia (n = 4-10). 5. 1-10 µM LY 53857 treatment beginning 10 minutes before the onset of ischemia (n = 4 per group). After 10 minutes of vehicle or drug pretreatment, the hearts were subjected to 25 minutes of total global ischemia which was initiated by shutting off the perfusate flow. Reperfusion was begun (without drug except in the case of group 3 above) and allowed to continue for 30 minutes. At this time, final measurements of EDP, LVDP and coronary flow were obtained. Cumulative LDH relase was measured in the reperfusate and was used as the index of cellular and membrane viability. In all hearts, the time to contracture during ischemia was measured and used as an index of cardioprotection during ischemia. Time to contracture is defined as the time (minutes) necessary for the first 5 mm Hg increase in EDP to occur during global ischemia. The data were expressed as the percent change in time to contracture from vehicle.

alpha, Adrenoceptors = experiment: Methoxamine-induced contraction in rat aortic rings (alpha1 blocking potency); conditions: 45 minute incubation; Figure 5B
Experimental: In order to determine the alpha1 blocking potency of cinanserin, ketanserin and LY 53857, their effect on methoxamine induced aortic constriction was determined. Male Sprague-Dawley rats were sacrificed using C02. Aortic rings (3 mm in width) were cut, denuded of endothelium by gently rolling the rings on moistened filter paper, and mounted on stainless steel hooks in 20 mL muscle chambers containing oxygenated physiological salt solution (PSS) of the following composition (in mM): 118.4 NaCI, 4.7 KCI, 1.2 MgS04, 1.2 KH2P04, 1.9 CaC12, 25.0 NaHC03, 10.1 D-glucose, and 0.01 mM Na2EDTA maintained at 37 °C. The hooks were connected to Grass FT03C transducers for recording of isometric force development. The rings were stretched to 2 g preload during the equilibration period. During equilibration the rings were periodically stimulated with 24 mM KCI to determine contractility. The effectiveness of endothelial removal was confirmed by the absence of relaxation by 1 µM acetylcholine of a contraction in response to 0.01 µM phenylephrine.
Various concentrations of the test compounds were then added to individual baths and allowed a 45 minute incubation before cumulative concentration response curves for methoxamine (1 nM-30 /1.M) were obtained. Solvent controls were run in parallel. […]

[2] = 0.3 µM, 30 Min Post-Reperfusion
[3] = 0.3 µM, Pre-Ischemia, Post-Drug
[4] = 3 µM (Reper), given only during reperfusion, 30 Min Post-Reperfusion
[5] = 3 µM (Reper), given only during reperfusion, Pre-Ischemia, Post-Drug
[6] = 3 µM (Reper), given only during reperfusion, Pre-Ischemia, Pre-Drug

`O=C(c1ccc(F)cc1)C1CCN(CCn2c(=O)[nH]c3ccccc3c2=O)CC1` [Ketanserin, ketanserin] was tested, and the “Coronary Flow” value [1, 2] was 13±2^a mL/min/g, the HR [1, 2] was 266±18^a beats/min and the LVDP [1, 2] was 20±5^a mmHg. For the same molecule, the “Coronary Flow” value [1, 3] was 16 ± 2 mL/min/g, the HR [1, 3] was 275±6 beats/min and the LVDP [1, 3] was 141±10 mmHg. The “Coronary Flow” value ([1]; 0.3 µM, Pre-Ischemia, Pre-Drug) was 20 ± 2 mL/min/g, the HR ([1]; 0.3 µM, Pre-Ischemia, Pre-Drug) was 291±2 beats/min and the LVDP ([1]; 0.3 µM, Pre-Ischemia, Pre-Drug) was 146±5 mmHg. For the same molecule, the “Coronary Flow” value ([1]; 1 µM, 30 Min Post-Reperfusion) was 10±1^a mL/min/g, the HR ([1]; 1 µM, 30 Min Post-Reperfusion) was 243±35^a beats/min and the LVDP ([1]; 1 µM, 30 Min Post-Reperfusion) was 29±5^a mmHg. For the same molecule, the “Coronary Flow” value ([1]; 1 µM, Pre-Ischemia, Post-Drug) was 15 ± 1 mL/min/g, the HR ([1]; 1 µM, Pre-Ischemia, Post-Drug) was 272±11 beats/min and the LVDP ([1]; 1 µM, Pre-Ischemia, Post-Drug) was 128±4 mmHg. The “Coronary Flow” value ([1]; 1 µM, Pre-Ischemia, Pre-Drug) was 19 ± 1 mL/min/g, the HR ([1]; 1 µM, Pre-Ischemia, Pre-Drug) was 311±16 beats/min and the LVDP ([1]; 1 µM, Pre-Ischemia, Pre-Drug) was 130±6 mmHg. The “Coronary Flow” value [1, 4] was 14±1^a mL/min/g, the HR [1, 4] was 196±14^a,b beats/min and the LVDP [1, 4] was 33±6^a mmHg. The “Coronary Flow” value [1, 5] was 17 ± 2 mL/min/g, the HR [1, 5] was 285±11 beats/min and the LVDP [1, 5] was 130±5 mmHg. The “Coronary Flow” value [1, 6] was 19 ± 1 mL/min/g, the HR [1, 6] was 292±15 beats/min and the LVDP [1, 6] was 134±4 mmHg. For the same molecule, the “Coronary Flow” value ([1]; 3 µM, 30 Min Post-Reperfusion) was 13±1^a mL/min/g, the HR ([1]; 3 µM, 30 Min Post-Reperfusion) was 246±22^a beats/min and the LVDP ([1]; 3 µM, 30 Min Post-Reperfusion) was 53±7^a,b mmHg. For the same molecule, the “Coronary Flow” value ([1]; 3 µM, Pre-Ischemia, Post-Drug) was 15 ± 1 mL/min/g, the HR ([1]; 3 µM, Pre-Ischemia, Post-Drug) was 244±16^a beats/min and the LVDP ([1]; 3 µM, Pre-Ischemia, Post-Drug) was 127±9 mmHg. The “Coronary Flow” value ([1]; 3 µM, Pre-Ischemia, Pre-Drug) was 19 ± 1 mL/min/g, the HR ([1]; 3 µM, Pre-Ischemia, Pre-Drug) was 310±13 beats/min and the LVDP ([1]; 3 µM, Pre-Ischemia, Pre-Drug) was 128±8 mmHg. For the same molecule, the “Coronary Flow” value ([1]; 10 µM, 30 Min Post-Reperfusion) was 13±2^a mL/min/g, the HR ([1]; 10 µM, 30 Min Post-Reperfusion) was 220±22^a beats/min and the LVDP ([1]; 10 µM, 30 Min Post-Reperfusion) was 66±4^a,b mmHg. For the same molecule, the “Coronary Flow” value ([1]; 10 µM, Pre-Ischemia, Post-Drug) was 14 ± 2 mL/min/g, the HR ([1]; 10 µM, Pre-Ischemia, Post-Drug) was 196±19^a,b beats/min and the LVDP ([1]; 10 µM, Pre-Ischemia, Post-Drug) was 128±5 mmHg. The “Coronary Flow” value ([1]; 10 µM, Pre-Ischemia, Pre-Drug) was 19 ± 1 mL/min/g, the HR ([1]; 10 µM, Pre-Ischemia, Pre-Drug) was 290±6 beats/min and the LVDP ([1]; 10 µM, Pre-Ischemia, Pre-Drug) was 135±5 mmHg. The EC25 ([1]; Rattus norvegicus, drug given 10 minutes before global ischemia, read-out: EC25 (concentration which increased the time to contracture 25% above vehicle group values)) was 5.5 µM, the “cumulative LDH release during reperfusion” value ([1]; given only during reperfusion (Reper)) was “did not cause a reduction in LDH release” and the “protective effect for any variable measured” value ([1]; given only during reperfusion at 3 µM) was “no protective effect”. The “reperfusion LDH release” value ([1]; only at the 10 µM concentration, Figure 2B) was “significantly reduced LDH relase” and the “concentration from which the shift of the methoxamine-tension curve was significant” value (alpha, Adrenoceptors) was 0.3 µM.

— EP0596449A2, “Serotonin receptor antagonists for treating myocardial ischemia” (E.R. SQUIBB & SONS, INC., priority 1992, dated 1994)
